# Measurements as given in article PMC3110009 (ACS medicinal chemistry letters, 2011).
# Columns and labels:
# [1] = biological target: dopamine D2 receptor (D2^high / D2^low) (Rattus norvegicus, UniProt P61169); type: binding
# [2] = biological target: dopamine D3 receptor (human D3 clone) (Homo sapiens, UniProt P35462); assay: Competitive binding at human D3 clone, [3H]domperidone
# Chain of dopamine D3 receptor (human D3 clone) (P35462 whole entry): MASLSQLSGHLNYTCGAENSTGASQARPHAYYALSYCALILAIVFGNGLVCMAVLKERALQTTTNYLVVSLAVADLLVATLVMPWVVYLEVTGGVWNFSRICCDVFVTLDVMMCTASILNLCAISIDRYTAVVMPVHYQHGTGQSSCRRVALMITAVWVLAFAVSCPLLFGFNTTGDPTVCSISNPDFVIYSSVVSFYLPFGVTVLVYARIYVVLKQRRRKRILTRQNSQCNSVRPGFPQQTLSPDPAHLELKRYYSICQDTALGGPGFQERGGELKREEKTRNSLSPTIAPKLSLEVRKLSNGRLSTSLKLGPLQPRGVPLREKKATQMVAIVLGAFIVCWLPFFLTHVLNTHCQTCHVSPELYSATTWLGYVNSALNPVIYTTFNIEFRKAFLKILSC
# Chain of dopamine D2 receptor (D2^high / D2^low) (P61169 1-415 isoform P61169-2): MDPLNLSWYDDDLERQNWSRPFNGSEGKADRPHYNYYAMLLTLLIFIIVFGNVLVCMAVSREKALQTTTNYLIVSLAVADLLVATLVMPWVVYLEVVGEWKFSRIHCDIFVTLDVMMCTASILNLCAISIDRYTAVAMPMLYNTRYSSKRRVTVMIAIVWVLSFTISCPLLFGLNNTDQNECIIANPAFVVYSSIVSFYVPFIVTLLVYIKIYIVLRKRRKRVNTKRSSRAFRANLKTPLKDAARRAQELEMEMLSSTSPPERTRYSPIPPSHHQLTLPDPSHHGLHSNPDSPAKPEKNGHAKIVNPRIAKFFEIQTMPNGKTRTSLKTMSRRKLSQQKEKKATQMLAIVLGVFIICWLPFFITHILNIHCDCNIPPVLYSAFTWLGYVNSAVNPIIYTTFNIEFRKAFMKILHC
smiles,measurement,setting,value
"CCN1CCc2cc(OCCCF)cc3c2[C@H]1Cc1ccc(O)c(O)c1-3 [Compound 8c, N-ethyl-2-fluoropropanoxy catechol-aporphine]",fold increase in D2^high affinity,[1]; in comparison to 8a,~4 fold
CCN1CCc2cc(OCCF)cc3c2[C@H]1Cc1ccc(O)c(O)c1-3 [Compound 8d],fold improvement in D2^high binding affinity,[1]; 2-fluoroethoxy analog versus N-ethyl 2-fluoropropanoxy analog 8c,more than 2 fold
CN1CCc2cc(OCCCF)cc3c2[C@H]1Cc1ccc(O)c(O)c1-3 [Compound 8e],Ki D3^high,[2]; high affinity state of D3,did not exhibit any D3^high affinity
CN1CCc2cc(OCCF)cc3c2[C@H]1Cc1ccc(O)c(O)c1-3 [Compound 8f],Ki D3 [3H]domperidone,"[2]; human D3 clone, SD",no appreciable affinity to D3
